Literature values in paper PMC12521730, “Quantitative dual-isotope preclinical SPECT/CT imaging and biodistribution of the mercury-197m/g theranostic pair with [^197m/gHg]HgCl2 and a [^197m/gHg]Hg-tetrathiol complex as a platform for radiopharmaceutical development” (EJNMMI Radiopharmacy and Chemistry, 2025).

Key:
[1] = 24 h; ref Randhawa et al. [2023]; cited from earlier work
[2] = set-up: method as in Randhawa et al. [2023]; conditions: 72 h; ref Randhawa et al. [2023]; cited from earlier work

## O=C(CN1CCSCCSCCSCCSCC1)NCc1ccccc1.[Hg+2] [NS4-BA complex]
[1]
  intact complex in human serum: 74 ± 7%
[2]
  intact complex when challenged against GSH: 92 ± 1%
